Experimental findings from patent publication US20250281620A1, “HYDROXYBISPHOSPHONIC DERIVATIVES OF MELOXICAM FOR THE TREATMENT OF INFLAMMATORY JOINT DISEASES” (Atlanthéra, priority 2021, published 2025) are described below.

For one data set, the system named is monoarthritis in rats. Briefly: mBSA-induced monoarthritis model in rats (knee swelling, limping). Type of data set: in vivo, rat. As to conditions: oral daily meloxicam 0.2 mg/kg. The protocol:
Monoarthritis was induced in rats (male, Sprague Dawley strain, aged 14 weeks) by intra-articular injection (knee) of 100 μg of mBSA after two preliminary sensitizers (2 and 3 weeks before the induction) by subcutaneous injection of a CFA emulsion containing 500 μg of mBSA. The distribution was carried out on D2, 24 h after induction, as a function of the intensity of the swelling in order to obtain homogeneity between the groups. […] The HBP-meloxicam molecules were solubilized in 5% glucose. In control, the pathological animals (mBSA) received a single injection (caudal vein, 5 min infusion, volume of 10 mL/kg) of 5% glucose.
In reference treatment, the animals received an oral daily administration of meloxicam for 28 days at the NOEL dose of 0.2 mg/kg-0.57 μmol/kg, i.e., a cumulative dose of 15.96 μmol/kg.
The evolution of arthritis was monitored by measuring the swelling of the pathological knee as well as the animal's limping.

The nature of a further data set: Solubility in water. It is filed as physicochemical. As to conditions: general statement, no method described.

Turning to `Cc1cnc(NC(=O)C2=C(O)c3ccccc3S(=O)(=O)N2C)s1` [meloxicam], in the data set on monoarthritis in rats, the “end of limping after treatment” value was 9 days. In addition, the solubility in water result in the data set “Solubility in water” is given as “very poorly soluble”.
